According to ChEMBL document CHEMBL1201862, “PubChem BioAssay data set” (2004):
Active and inactive are the calls of the source.

How the values were obtained:
[1] = target: Cystic fibrosis transmembrane conductance regulator/Golgi-associated PDZ and coiled-coil motif-containing protein (Homo sapiens, UniProt P13569+Q9HD26); assay: CAL PDZ peptide-binding inhibitors, dose response, biochemical, fluorescence polarization, Cerulean-tagged CAL PDZ, cherry-picks (AID 504773)
[2] = target: T1, Voltage-dependent T-type calcium channel subunit alpha-1H (Homo sapiens, UniProt O95180); assay: Inhibitors of T-Type Calcium Channels. [Related pubchem assays (depositor defined):AID449739, AID463087, AID489005, AID493041, AID504579, AID504584, AID504619, AID504628]; assay type: functional
T1 sequence (O95180 whole entry): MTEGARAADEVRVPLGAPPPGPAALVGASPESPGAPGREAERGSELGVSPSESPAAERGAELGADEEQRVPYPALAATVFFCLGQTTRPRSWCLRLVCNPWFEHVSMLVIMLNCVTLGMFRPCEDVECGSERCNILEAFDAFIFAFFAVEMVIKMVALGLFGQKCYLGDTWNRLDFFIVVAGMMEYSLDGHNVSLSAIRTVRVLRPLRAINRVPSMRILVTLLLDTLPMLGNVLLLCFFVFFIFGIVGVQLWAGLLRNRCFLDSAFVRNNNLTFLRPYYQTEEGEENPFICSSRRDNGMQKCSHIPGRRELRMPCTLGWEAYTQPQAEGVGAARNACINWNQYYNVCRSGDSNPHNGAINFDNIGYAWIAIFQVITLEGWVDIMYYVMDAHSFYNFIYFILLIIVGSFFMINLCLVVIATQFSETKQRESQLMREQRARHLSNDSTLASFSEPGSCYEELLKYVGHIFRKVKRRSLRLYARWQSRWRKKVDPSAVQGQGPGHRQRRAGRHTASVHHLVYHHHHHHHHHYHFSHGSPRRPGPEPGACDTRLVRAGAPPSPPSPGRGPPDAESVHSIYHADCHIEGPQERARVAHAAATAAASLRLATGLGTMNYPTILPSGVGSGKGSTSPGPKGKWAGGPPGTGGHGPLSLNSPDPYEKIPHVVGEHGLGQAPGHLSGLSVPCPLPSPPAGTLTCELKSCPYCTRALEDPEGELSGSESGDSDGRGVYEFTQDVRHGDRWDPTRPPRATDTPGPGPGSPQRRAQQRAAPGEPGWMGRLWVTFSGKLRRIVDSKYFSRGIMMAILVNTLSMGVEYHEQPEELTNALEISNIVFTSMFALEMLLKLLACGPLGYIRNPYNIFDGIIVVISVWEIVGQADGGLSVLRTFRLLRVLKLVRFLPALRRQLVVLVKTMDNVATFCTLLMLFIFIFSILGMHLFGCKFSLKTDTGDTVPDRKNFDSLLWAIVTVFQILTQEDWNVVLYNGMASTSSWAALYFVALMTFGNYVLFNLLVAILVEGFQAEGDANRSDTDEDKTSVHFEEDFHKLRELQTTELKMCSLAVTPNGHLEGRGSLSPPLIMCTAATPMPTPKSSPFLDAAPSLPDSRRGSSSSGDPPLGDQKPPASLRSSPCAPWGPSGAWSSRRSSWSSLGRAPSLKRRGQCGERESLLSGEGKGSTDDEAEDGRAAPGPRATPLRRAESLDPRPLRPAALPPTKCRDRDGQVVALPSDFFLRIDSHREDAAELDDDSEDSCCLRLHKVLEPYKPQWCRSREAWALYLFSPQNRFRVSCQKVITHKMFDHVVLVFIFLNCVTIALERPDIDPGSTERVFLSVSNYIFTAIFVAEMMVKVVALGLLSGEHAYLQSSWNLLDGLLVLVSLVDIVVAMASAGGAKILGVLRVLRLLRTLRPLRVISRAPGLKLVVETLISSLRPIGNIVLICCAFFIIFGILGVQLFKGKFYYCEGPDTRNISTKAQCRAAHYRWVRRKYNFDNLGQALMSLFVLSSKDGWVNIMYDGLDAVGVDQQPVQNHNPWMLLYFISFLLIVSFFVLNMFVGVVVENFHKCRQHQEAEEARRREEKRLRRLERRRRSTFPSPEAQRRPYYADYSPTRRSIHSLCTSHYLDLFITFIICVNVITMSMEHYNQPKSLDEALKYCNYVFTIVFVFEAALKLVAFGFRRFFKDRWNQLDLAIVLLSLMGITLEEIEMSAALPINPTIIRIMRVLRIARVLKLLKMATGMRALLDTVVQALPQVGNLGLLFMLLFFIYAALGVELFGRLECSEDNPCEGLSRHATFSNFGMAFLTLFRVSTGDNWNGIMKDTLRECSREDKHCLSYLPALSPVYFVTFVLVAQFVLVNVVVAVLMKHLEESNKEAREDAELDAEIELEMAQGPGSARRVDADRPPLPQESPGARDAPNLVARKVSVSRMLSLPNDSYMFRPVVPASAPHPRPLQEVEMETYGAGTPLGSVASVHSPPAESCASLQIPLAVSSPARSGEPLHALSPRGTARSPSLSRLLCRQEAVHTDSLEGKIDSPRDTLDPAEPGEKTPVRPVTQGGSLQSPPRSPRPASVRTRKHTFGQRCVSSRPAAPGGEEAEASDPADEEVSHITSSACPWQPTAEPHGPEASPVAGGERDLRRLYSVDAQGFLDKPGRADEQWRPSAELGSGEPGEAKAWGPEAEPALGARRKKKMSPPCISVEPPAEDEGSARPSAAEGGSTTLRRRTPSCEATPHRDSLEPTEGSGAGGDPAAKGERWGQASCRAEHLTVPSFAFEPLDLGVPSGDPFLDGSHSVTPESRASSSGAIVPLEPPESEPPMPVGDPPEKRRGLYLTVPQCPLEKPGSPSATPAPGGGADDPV

[3] = target: T1, Voltage-dependent T-type calcium channel subunit alpha-1H; assay type: functional
[4] = HEp-2 cell cytotoxicity, dose response, cytotoxicity control for RSV inhibitor project, HTS (AID 2410); assay type: functional; settings: human respiratory syncytial virus
Wee1-like protein kinase = Wee1-like protein kinase (Homo sapiens, UniProt P30291); assay: G2/M cell cycle arrest in HeLa, late-stage follow-up, mechanism study for Wee1 degradation inhibitor project, FACS, panel member Wee1 Degradation (AID 2088)
Wee1-like protein kinase, sequence (P30291 whole entry): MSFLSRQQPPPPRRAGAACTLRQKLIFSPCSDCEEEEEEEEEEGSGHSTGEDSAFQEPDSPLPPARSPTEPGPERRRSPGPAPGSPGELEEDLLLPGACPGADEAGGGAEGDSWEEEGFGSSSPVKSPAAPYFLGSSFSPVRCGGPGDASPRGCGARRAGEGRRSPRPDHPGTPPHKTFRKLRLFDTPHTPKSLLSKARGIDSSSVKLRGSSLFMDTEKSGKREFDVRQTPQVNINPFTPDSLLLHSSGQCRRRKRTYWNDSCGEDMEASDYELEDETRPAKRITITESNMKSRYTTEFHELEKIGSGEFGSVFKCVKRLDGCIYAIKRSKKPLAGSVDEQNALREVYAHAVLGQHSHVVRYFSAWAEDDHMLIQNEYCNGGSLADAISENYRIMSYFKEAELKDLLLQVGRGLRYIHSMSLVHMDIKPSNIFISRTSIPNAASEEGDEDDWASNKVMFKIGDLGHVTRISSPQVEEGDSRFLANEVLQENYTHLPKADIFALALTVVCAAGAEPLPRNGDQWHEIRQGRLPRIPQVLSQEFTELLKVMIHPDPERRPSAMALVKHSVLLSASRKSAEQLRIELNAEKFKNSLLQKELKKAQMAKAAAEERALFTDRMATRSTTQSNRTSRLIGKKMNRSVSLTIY

[5] = target: G2/mitotic-specific cyclin-B1 (Homo sapiens, UniProt P14635); assay: G2/M cell cycle arrest in HeLa, late-stage follow-up, mechanism study for Wee1 degradation inhibitor project, FACS, panel member Cyclin B Degradation (AID 2088)
G2/mitotic-specific cyclin-B1, sequence (P14635 whole entry): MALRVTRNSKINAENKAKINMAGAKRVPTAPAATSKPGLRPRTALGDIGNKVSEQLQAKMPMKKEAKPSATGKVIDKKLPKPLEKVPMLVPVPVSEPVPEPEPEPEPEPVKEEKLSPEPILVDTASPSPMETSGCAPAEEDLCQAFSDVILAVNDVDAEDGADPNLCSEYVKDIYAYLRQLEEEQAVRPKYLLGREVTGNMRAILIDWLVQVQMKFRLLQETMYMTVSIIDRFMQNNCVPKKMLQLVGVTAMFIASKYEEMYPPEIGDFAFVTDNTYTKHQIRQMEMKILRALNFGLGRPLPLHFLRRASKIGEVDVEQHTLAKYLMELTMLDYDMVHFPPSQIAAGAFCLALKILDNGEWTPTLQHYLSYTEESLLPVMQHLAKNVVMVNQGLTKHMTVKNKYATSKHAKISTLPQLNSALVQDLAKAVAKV

Cytochrome P450 2D6 = Cytochrome P450 2D6 (Homo sapiens, UniProt P10635);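 also: CYP2D6 member of a cytochrome P450 panel assay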
[6] = target: T2, Apoptotic protease-activating factor 1 (Homo sapiens, UniProt O14727); assay type: functional
T2 sequence (O14727 whole entry): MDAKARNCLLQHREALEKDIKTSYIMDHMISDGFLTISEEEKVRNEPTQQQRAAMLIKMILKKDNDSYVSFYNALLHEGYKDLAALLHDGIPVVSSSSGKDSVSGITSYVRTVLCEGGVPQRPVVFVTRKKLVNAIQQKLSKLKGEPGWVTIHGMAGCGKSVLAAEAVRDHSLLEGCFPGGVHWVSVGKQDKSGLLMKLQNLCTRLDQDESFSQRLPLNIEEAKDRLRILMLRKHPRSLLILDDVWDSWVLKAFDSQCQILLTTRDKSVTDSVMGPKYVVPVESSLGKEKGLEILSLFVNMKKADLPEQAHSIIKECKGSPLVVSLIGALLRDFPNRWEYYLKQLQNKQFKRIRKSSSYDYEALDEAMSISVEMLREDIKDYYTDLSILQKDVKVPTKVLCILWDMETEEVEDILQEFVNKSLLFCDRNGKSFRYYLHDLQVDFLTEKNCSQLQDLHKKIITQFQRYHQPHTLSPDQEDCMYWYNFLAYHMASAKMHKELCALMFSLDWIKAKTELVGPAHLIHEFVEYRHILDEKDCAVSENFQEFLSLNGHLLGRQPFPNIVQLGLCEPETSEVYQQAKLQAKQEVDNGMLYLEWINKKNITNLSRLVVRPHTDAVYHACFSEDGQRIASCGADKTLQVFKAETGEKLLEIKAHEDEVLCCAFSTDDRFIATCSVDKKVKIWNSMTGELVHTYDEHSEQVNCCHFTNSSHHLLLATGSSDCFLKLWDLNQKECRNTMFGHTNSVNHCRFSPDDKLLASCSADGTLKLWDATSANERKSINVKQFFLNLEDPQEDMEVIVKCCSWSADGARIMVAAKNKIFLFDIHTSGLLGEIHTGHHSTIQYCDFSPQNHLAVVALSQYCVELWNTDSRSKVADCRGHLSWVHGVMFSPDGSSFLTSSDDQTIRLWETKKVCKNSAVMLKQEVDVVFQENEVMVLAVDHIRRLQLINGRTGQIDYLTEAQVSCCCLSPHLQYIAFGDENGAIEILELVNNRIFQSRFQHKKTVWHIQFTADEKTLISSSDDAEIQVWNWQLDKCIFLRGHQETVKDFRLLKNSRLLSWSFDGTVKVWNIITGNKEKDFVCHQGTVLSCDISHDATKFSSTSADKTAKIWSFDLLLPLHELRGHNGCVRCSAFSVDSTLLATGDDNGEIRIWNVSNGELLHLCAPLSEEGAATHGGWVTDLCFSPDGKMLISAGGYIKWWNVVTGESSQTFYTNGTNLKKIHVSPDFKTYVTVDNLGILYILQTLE

CHO = assay: cytotoxicity in TLR9-MyD88 CHO cells, dose response, cytotoxicity control for TLR9-MyD88 binding inhibitor project, cell-based, luminescence (AID 588339); assay type: functional, hamster; settings: Cricetulus griseus;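 also: CHO cells stably coexpressing TLR9 and MyD88 fusions from primary screen; compound exposure lasted 48 hours before viability readout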
Beta Lactamase = Beta Lactamase (Pseudomonas aeruginosa, UniProt Q932Y6); assay: beta-lactamase reporter inhibitor potency, dose response, artefact control for TLR9-MyD88 binding inhibitor project, BLA reporter cells, FRET fluorescence (AID 588341); assay type: cell-based;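 also: cell based assay in CHO-K1 cells stably expressing beta-lactamase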
Beta Lactamase, sequence (Q932Y6 whole entry): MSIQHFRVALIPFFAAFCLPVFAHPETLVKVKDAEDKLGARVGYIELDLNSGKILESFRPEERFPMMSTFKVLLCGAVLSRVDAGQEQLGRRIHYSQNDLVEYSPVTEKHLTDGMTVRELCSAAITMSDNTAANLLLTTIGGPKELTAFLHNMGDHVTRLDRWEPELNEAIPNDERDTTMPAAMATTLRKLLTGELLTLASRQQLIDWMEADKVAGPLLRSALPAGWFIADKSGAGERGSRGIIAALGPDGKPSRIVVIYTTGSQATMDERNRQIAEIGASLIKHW

Hexokinase HKDC1 = target: T3, Hexokinase HKDC1 (Homo sapiens, UniProt Q2TB90); assay: HKDC1 hexokinase inhibitors, dose response, biochemical, W721R variant (AID 504729); assay type: functional
T3 sequence (Q2TB90 whole entry): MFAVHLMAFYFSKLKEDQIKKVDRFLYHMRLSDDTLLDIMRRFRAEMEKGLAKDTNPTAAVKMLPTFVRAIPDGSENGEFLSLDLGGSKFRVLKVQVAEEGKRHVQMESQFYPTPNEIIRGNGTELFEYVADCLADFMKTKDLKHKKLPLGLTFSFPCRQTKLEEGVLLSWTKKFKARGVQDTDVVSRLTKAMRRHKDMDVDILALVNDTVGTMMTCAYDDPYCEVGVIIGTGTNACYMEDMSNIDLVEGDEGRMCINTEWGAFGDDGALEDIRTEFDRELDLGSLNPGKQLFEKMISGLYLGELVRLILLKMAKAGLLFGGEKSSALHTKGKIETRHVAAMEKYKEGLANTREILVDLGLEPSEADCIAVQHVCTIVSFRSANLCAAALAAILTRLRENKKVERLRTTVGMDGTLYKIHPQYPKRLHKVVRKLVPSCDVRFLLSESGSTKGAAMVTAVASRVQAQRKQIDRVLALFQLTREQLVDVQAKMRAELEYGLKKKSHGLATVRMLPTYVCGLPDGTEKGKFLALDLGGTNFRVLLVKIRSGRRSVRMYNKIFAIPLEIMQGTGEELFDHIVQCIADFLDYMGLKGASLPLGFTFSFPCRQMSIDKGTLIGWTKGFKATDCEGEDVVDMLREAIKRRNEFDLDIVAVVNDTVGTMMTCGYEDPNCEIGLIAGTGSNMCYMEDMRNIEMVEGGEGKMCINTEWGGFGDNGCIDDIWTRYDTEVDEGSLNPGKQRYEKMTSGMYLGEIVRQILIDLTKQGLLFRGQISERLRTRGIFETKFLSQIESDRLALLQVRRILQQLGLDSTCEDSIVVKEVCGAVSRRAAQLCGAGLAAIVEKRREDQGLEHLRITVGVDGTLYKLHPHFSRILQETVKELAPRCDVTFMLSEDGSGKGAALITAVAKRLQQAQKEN

Phospholipase A2 = Phospholipase A2 (Homo sapiens, UniProt P04054); assay type: functional;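 also: confirmatory dose-response counterscreen on phospholipase A2, testing hits that came from an ultra-high-throughput screen for ATG4B inhibitors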
Phospholipase A2, sequence (P04054 whole entry): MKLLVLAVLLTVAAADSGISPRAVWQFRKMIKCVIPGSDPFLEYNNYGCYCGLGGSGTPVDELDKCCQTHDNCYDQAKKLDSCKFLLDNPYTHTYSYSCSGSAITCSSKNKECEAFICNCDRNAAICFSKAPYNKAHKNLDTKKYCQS

[7] = HeLa cell cytotoxicity, dose response, cytotoxicity control for MgcRacGAP inhibitor project (AID 624300); assay type: functional
[8] = microbe, parasite or virus in culture; assay type: functional; settings: Mycobacterium tuberculosis
Large T antigen = Large T antigen (Simian virus 40, UniProt P03070); assay type: functional, Betapolyomavirus macacae;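 also: Confirmatory-stage PubChem screen for compounds that inhibit SV40 T antigen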
[9] = target: T4, Rac GTPase-activating protein 1 (Homo sapiens, UniProt Q9H0H5); assay: MgcRacGAP GTPase-activating activity inhibitors, confirmation, biochemical, ADP Hunter fluorescence, primary and confirmatory (AID 624330); assay type: functional
T4 sequence (Q9H0H5 whole entry): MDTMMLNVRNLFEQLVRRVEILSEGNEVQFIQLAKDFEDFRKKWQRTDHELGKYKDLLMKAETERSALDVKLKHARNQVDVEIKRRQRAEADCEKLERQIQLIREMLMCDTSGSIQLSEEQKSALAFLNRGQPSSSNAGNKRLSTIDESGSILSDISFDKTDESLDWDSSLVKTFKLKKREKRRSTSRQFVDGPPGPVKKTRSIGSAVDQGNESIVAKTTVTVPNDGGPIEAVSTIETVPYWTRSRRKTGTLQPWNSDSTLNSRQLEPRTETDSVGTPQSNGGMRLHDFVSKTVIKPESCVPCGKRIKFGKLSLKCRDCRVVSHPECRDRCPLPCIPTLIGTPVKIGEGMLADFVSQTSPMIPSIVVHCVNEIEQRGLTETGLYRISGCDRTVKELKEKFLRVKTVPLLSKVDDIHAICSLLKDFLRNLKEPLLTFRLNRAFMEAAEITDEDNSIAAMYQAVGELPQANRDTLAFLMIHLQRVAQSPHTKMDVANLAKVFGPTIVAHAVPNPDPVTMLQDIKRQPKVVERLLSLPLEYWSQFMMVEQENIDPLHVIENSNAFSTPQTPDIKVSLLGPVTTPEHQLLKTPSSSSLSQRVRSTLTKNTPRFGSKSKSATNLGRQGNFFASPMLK

Cysteine protease ATG4B = target: T5, Cysteine protease ATG4B (Homo sapiens, UniProt Q9Y4P1); assay type: functional;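 also: Fluorescence-based dose-response confirmation assay measuring inhibition of ATG4B activity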
T5 sequence (Q9Y4P1 whole entry): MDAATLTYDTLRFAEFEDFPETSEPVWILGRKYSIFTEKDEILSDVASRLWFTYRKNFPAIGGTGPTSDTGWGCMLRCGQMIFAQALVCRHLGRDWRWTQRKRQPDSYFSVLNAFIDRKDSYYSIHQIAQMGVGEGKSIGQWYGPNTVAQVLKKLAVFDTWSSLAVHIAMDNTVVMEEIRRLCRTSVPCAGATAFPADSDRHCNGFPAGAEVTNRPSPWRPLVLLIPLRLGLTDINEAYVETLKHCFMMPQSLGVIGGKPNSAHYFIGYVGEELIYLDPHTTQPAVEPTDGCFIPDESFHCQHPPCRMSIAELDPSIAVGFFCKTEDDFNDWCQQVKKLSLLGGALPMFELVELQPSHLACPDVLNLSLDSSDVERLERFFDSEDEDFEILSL

[10] = target: Cyclin-dependent kinase 5/CDK5 activator 1 (Homo sapiens, UniProt Q00535); assay: CDK5/p35 kinase inhibitors, dose response, biochemical, cherry-picked samples, set 2 (AID 504545)
Cyclin-dependent kinase 5/CDK5 activator 1, sequence (Q00535 whole entry): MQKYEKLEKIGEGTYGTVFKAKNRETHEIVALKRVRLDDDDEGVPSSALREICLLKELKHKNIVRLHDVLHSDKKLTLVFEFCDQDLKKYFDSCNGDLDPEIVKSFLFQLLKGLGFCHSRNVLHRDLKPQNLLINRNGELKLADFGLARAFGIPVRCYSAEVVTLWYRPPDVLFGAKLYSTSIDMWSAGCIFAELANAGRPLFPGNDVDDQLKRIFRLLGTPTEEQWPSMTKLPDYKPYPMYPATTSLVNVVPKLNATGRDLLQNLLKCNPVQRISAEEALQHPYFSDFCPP
Cyclin-dependent kinase 5/CDK5 activator 1, sequence (Q15078 whole entry, further chain): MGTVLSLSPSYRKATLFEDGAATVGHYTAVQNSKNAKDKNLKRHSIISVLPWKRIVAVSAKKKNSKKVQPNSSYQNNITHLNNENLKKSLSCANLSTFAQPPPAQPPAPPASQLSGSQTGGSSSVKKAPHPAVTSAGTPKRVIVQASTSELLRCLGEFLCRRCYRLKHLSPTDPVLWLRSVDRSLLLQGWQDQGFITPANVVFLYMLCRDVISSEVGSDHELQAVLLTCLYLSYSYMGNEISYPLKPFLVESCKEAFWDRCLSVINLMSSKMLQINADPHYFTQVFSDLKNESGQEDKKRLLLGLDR

[11] = C. albicans growth with fluconazole, confirmation, fluorescence, retest (AID 2467); assay type: functional, cell-based
[12] = target: T6, Neuropeptide Y receptor type 1 (Homo sapiens, UniProt P25929); assay type: functional;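 also: HEK293 cells with a CNG channel challenged with NPY then isoproterenol; potency as antagonist that reverses NPY suppression of cAMP signal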
T6 sequence (P25929 whole entry): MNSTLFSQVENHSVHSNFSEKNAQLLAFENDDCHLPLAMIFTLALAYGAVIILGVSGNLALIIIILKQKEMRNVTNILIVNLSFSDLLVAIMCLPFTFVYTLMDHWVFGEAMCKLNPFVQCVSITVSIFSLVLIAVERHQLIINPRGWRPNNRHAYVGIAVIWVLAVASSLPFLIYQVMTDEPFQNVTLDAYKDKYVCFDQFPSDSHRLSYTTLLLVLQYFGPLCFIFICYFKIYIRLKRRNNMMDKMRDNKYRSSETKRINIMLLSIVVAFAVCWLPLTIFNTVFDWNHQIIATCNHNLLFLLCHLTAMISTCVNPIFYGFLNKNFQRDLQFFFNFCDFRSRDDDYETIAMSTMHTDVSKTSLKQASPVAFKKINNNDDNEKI

[13] = growth suppression of beta-catenin-knockout colon cells, dose response, cell-based, HCT116, human colon tumor (AID 1045); assay type: functional;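 also: HCT116 colon tumor cells with beta catenin knocked out; cells exposed to compound for 60 hours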
[14] = NIH-3T3 fibroblast cytotoxicity, dose response, cytotoxicity control, cell-based, fluorescence, Alamar Blue, secondary assay (AID 2327); assay type: functional;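 also: NIH-3T3 mouse fibroblasts cultured with fluconazole at 8 µg/mL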
[15] = target: T7, Neuropeptide Y receptor type 2 (Homo sapiens, UniProt P49146); assay type: functional, cell-based;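 also: HEK293 cells expressing the receptor and a CNG channel; stimulus was NPY near EC95 followed by isoproterenol to raise cAMP; antagonist potency measured as restoring cAMP signal that NPY suppresses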
T7 sequence (P49146 whole entry): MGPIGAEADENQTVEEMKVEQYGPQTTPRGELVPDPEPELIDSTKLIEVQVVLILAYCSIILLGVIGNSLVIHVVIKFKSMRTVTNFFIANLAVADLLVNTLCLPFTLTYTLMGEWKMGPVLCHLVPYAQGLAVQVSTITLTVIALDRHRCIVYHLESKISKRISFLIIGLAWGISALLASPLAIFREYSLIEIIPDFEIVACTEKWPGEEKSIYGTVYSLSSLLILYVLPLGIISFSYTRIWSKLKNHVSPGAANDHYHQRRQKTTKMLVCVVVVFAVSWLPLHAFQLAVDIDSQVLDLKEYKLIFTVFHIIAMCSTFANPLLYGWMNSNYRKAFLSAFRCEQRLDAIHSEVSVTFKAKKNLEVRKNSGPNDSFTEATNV

[16] = target: Neurotensin receptor type 1 (Homo sapiens, UniProt P30989); assay type: functional;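 also: Image-based confirmatory dose-response assay measuring agonist activity at NTR1; NTR1-expressing U2OS osteosarcoma cells imaged for beta-arrestin GFP spot formation; agonist potency where compounds increase beta-arrestin recruitment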
Neurotensin receptor type 1, sequence (P30989 whole entry): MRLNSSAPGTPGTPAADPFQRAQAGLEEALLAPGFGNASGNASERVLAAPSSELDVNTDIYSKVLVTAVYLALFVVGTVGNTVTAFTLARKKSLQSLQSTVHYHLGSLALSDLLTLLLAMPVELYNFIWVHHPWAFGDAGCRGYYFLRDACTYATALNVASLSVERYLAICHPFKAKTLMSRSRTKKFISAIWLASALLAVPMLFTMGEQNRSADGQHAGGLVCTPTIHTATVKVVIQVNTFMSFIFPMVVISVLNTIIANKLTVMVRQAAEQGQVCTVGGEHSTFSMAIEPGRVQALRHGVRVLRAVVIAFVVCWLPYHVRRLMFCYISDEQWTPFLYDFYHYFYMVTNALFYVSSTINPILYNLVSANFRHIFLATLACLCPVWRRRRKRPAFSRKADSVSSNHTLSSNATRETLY

Vero [17] = assay: cells; assay type: functional, cell-based; settings: Chlorocebus sabaeus
Vero [18] = assay: cells; assay type: functional; settings: Chlorocebus sabaeus
[19] = growth suppression of PTEN-null colon cells, dose response, cell-based, HCT116 PTEN knockout (AID 1047); assay type: functional;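 also: HCT116 colon tumor cells with PTEN knocked out; cells exposed to compound for 60 hours before readout; potency for loss of cell viability measured by luminescence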

In the case of `NS(=O)(=O)c1ccc(N2N=C(c3ccccc3)CC2c2ccccc2)cc1` (configuration not stated), the AC50 [1] is reported as 66.6 µM (active).
For `O=C(CN1CCC(n2nnc3cc(F)ccc32)CC1)Nc1ccc2c(c1)CCC2`, the EC50 [2] was 6.67 µM (active), the EC50 [3] was 5.76 µM (active) and the CC50 [4] was > 50 µM (active).
In the case of `COc1ccc(C)cc1NC(=O)CCCOc1cc(=O)n(C)c2ccccc12`, the EC50 (Wee1-like protein kinase) is reported as > 49.7 µM (inactive) and the EC50 [5] is reported as > 49.7 µM (inactive).
For `O=C1C(SCCO)=C(SCCO)C(=O)c2ccccc21`, the AC50 (Cytochrome P450 2D6) was 31.6 µM (inconclusive), the IC50 [6] was 12.7 µM (active) and the IC50 (CHO) was 0.479 µM (active). For the same compound, the IC50 (Beta Lactamase) was 12.1 µM (inactive), the IC50 (Hexokinase HKDC1) was 3.15 µM (active) and the IC50 (Phospholipase A2) was 55.5 µM (inactive). The CC50 [7] was 24.5 µM (active), the CC50 [8] was 30.1 µM (active) and the IC50 (Large T antigen) was 26.6 µM (active). The IC50 [9] was 32.5 µM (active) and the IC50 (Cysteine protease ATG4B) was 12.8 µM (active).
With `COc1ccc(S(=O)(=O)Nc2c(C(=O)O)[nH]c3ccc(OC)cc23)c(OC)c1` the AC50 [10] was 20.6 µM (active).
In the case of `O=C(/C=C/c1cccc(Cl)c1)c1nc2ccccc2[nH]1`, the EC50 [11] is reported as 2.34 µM (active), the IC50 [12] is reported as 7.7 µM (active) and the EC50 [13] is reported as 2.2 µM (active). The EC50 [14] was 67 µM (inconclusive), the IC50 [15] was 5.08 µM (active) and the EC50 [16] was 25.8 µM (inactive). The IC50 (Vero [17]) was > 25 µM (active), the CC50 (Vero [18]) was 12.1 µM (active) and the EC50 [19] was 2.16 µM (active).
